Results published in patent publication US20230113609A1, “SSTR5 ANTAGONISTS” (Kallyope, Inc., priority 2019, published 2023).

What follows are compounds tested against T1, human SSTR5 (Homo sapiens, UniProt P35346) (assay: Inositol phosphate accumulation assay (IP1 HTRF, antagonist mode)). Details: CHO-K1 cells co-expressing human SSTR5 with Gqi5, SST28 agonist at concentration generating 90% of full activation.
T1 construct: expressed in transfected cells
Format: cell-based
Source text: CHO-K1 cells stably co-expressing human SSTR5 with Gqi5 were developed using Jump-In technology from Thermo-Fisher. Gqi5 is the mouse G alpha q protein, that was modified to interact with Gi-coupled GPCRs as described previously (Coward, P.; Chan, S. D.; Wada, H. G.; Humphries, G. M.; Conklin, B. R. Chimeric G proteins Allow a High-Throughput Signaling Assay of Gi-Coupled Receptors. Anal Biochem. 1999, 270(2),242-248).
Co-expression of Gqi5 with SSTR5 allowed monitoring of SSTR5 activity by following IP1 accumulation. The assay was performed in a 384-well plate format using the IP1 assay kit from Cis-Bio in an antagonist mode, i.e., pre-incubation with antagonist following by receptor activation by agonist at a concentration generating 90% of full activation. Frozen cells expressing human SSTR5 were thawed, washed, and then plated in DMEM supplemented with 10% FBS and non-essential amino acids. 40 μL of 2.5×10^5 cells/mL were plated on a Poly D-Lysine coated 384-well white plate. The cells were then incubated for 16 hr. at 37° C/5% CO2. After 16 hour the medium was removed, and 10 μL of stimulation buffer was added to the cells. Test compounds were dissolved in DMSO at concentrations 2000-fold that of the final assay concentrations. 7.5 nLcompound solutions were transferred to the cell plates using a Labcyte Echo® acoustic liquid handler. The plates were then incubated for 15 minutes at 37° C/5%CO2. After the first incubation, 5 μL of 30 nM SST28 were added to the cells, and the cells were incubated for 90 minutes at 37° C/5%CO2. 5 μL of detection buffer (prepared as described in the IP-1 kit) was added to each well, and the plates were incubated at RT for 1 hour.
TR-FRET was measured using a ClarioSTAR plate reader, calculating the ratio between emissions at 665 nm and 620 nm (HTRF ratio). The HTRF ratio for positive (Max) and negative (Min) controls were used to normalize HTRF data and generate values for % inhibition. IC50 and maximal inhibition values were determined using a standard 4-parameter fit.

T1 sequence (P35346 whole entry): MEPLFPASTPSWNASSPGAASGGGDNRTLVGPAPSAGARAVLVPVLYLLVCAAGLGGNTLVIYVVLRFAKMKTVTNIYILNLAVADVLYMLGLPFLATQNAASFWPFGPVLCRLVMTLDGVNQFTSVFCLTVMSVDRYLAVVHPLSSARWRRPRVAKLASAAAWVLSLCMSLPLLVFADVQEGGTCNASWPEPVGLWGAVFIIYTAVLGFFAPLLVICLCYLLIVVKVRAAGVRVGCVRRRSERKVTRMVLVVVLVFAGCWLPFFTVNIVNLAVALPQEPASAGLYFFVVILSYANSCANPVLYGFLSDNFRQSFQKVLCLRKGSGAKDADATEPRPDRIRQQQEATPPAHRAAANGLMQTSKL

IC50 | Structure (SMILES)
1000 to 5000 nM | CCOc1cc(CN2CCC3(CC2)CN(c2ccc(C(=O)N4CC(C(=O)NCCC[N+](C)(C)C)C4)cc2)C(=O)O3)cc(OCC)c1-c1ccc(F)cc1 [Example 8, 3-(1-(4-(8-((2,6-diethoxy-4′-fluoro-[1,1′-biphenyl]-4-yl)methyl)-2-oxo-1-oxa-3,8-diazaspiro[4.5]decan-3-yl)benzoyl)azetidine-3-carboxamido)-N,N,N-trimethylpropan-1-aminium]
≤ 100 nM | CCOc1cc(C(=O)OC)c(C2CC2)cc1CN1CCC2(CC1)CN(c1ccc(C(=O)NCCCS(=O)(=O)O)cc1)C(=O)O2 [Example 58, 3-(4-(8-(5-cyclopropyl-2-ethoxy-4-(methoxycarbonyl)benzyl)-2-oxo-1-oxa-3,8-diazaspiro[4.5]decan-3-yl)benzamido)propane-1-sulfonic acid]
≤ 100 nM | CCOc1cc(-c2ccc(F)cc2F)c(C2CC2)cc1CN1CCC2(CC1)CN(c1ccc(C(=O)NCCOCCO)cc1)C(=O)N2 [Example 72, 4-(8-((2-cyclopropyl-5-ethoxy-2′,4′-difluoro-[1,1′-biphenyl]-4-yl)methyl)-2-oxo-1,3,8-triazaspiro[4.5]decan-3-yl)-N-(2-(2-hydroxyethoxy)ethyl)benzamide]
≤ 100 nM | CCOc1cc(C(=O)OC)c(C2CC2)cc1CN1CCC2(CC1)CN(c1ccc(C(=O)NCCCNC(N)=O)cc1)C(=O)O2 [Example 57, methyl 2-cyclopropyl-5-ethoxy-4-((2-oxo-3-(4-((3-ureidopropyl)carbamoyl)phenyl)-1-oxa-3,8-diazaspiro [4.5]decan-8-yl)methyl)benzoate]
100 to 1000 nM | CCOc1cc(CN2CCC3(CC2)CN(c2ccc(C(=O)NCCCC(=O)NCCO)cc2)C(=O)O3)cc(OCC)c1-c1ccc(F)cc1 [compound 1, 4-(8-((2,6-diethoxy-4′-fluoro-[1,1′-biphenyl]-4-yl)methyl)-2-oxo-1-oxa-3,8-diazaspiro [4.5]decan-3-yl)-N-(4-((2-hydroxyethyl)amino)-4-oxobutyl)benzamide]
≤ 100 nM | CCOc1cc(C(=O)OC)c(C2CC2)cc1CN1CCC2(CC1)CN(c1ccc(C(=O)NCCCS(N)(=O)=O)cc1)C(=O)O2 [Example 59, methyl 2-cyclopropyl-5-ethoxy-4-((2-oxo-3-(4-((3-sulfamoylpropyl)carbamoyl)phenyl)-1-oxa-3,8-diazaspiro[4.5]decan-8-yl)methyl)benzoate]
100 to 1000 nM | CCOc1cc(CN2CCC3(CC2)CN(c2ccc(C(=O)NC[C@H](O)[C@@H](O)[C@H](O)[C@H](O)COC(=O)CCC(=O)O)cc2)C(=O)O3)cc(OCC)c1-c1ccc(F)cc1 [Example 2, 4-(((2R,3R,4R,5S)-6-(4-(8-((2,6-diethoxy-4′-fluoro-[1,1′-biphenyl]-4-yl)methyl)-2-oxo-1-oxa-3,8-diazaspiro[4.5]decan-3-yl)benzamido)-2,3,4,5-tetrahydroxyhexyl)oxy)-4-oxobutanoic acid]
100 to 1000 nM | CCOc1cc(C(=O)OC)c(C2CC2)cc1CN1CCC2(CC1)CC(=O)N(c1ccc(C(=O)NCCCNC(N)=O)cc1)C2 [Example 39, methyl 2-cyclopropyl-5-ethoxy-4-((3-oxo-2-(4-((3-ureidopropyl)carbamoyl)phenyl)-2,8-diazaspiro[4.5]decan-8-yl)methyl)benzoate]
100 to 1000 nM | CCOc1cc(C(=O)OC)c(C2CC2)cc1CN1CCC2(CC1)CC(=O)N(c1ccc(C(=O)NCCS(N)(=O)=O)cc1)C2 [Example 50, methyl 2-cyclopropyl-5-ethoxy-4-((3-oxo-2-(4-((2-sulfamoylethyl)carbamoyl)phenyl)-2,8-diazaspiro[4.5]decan-8-yl)methyl)benzoate]
100 to 1000 nM | CCOc1cc(C(=O)OC)c(C2CC2)cc1CN1CCC2(CC1)CN(c1ccc(C(=O)NCCOCCO)cc1)C(=O)N2 [Example 76, methyl 2-cyclopropyl-5-ethoxy-4-((3-(4-((2-(2-hydroxyethoxy)ethyl)carbamoyl)phenyl)-2-oxo-1,3,8-triazaspiro[4.5]decan-8-yl)methyl)benzoate]
≤ 100 nM | CCOc1cc(-c2ccc(F)cc2)c(C2CC2)cc1CN1CCC2(CC1)CN(c1ccc(C(=O)NCCOCCO)cc1)C(=O)O2 [Example 61, 4-(8-((2-cyclopropyl-5-ethoxy-4′-fluoro-[1,1′-biphenyl]-4-yl)methyl)-2-oxo-1-oxa-3,8-diazaspiro [4.5]decan-3-yl)-N-(2-(2-hydroxyethoxy)ethyl)benzamide]
> 5000 nM | CCOc1cc(C(=O)OC)c(C2CC2)cc1CN1CCN(C(=O)Cc2ccc(C(=O)NC[C@H](O)[C@@H](O)[C@H](O)[C@H](O)CO)cc2)CC1 [Example 97, methyl 2-cyclopropyl-5-ethoxy-4-((4-(2-(4-(((2S,3R,4R,5R)-2,3,4,5,6-pentahydroxyhexyl)carbamoyl)phenyl)acetyl)piperazin-1-yl)methyl)benzoate]
100 to 1000 nM | CCOc1cc(C(=O)OC)c(C2CC2)cc1CN1CCC2(CC1)CC(=O)N(c1ccc(C(=O)NCCC(O)CO)cc1)C2 (stereo not drawn) [Example 48, methyl 2-cyclopropyl-4-((2-(4-((3,4-dihydroxybutyl)carbamoyl)phenyl)-3-oxo-2,8-diazaspiro[4.5]decan-8-yl)methyl)-5-ethoxybenzoate]
≤ 100 nM | CCOc1cc(-c2ccc(F)cn2)c(C2CC2)cc1CN1CCC2(CC1)CN(c1ccc(S(=O)(=O)NCCOCCO)cc1)C(=O)O2 [Example 82, 4-(8-(5-cyclopropyl-2-ethoxy-4-(5-fluoropyridin-2-yl)benzyl)-2-oxo-1-oxa-3,8-diazaspiro[4.5]decan-3-yl)-N-(2-(2-hydroxyethoxy)ethyl)benzenesulfonamide]
> 5000 nM | CCOc1cc(C(=O)OC)c(C2CC2)cc1CN1CCC2(CC1)CC(=O)N(c1ccc(C(=O)NCCCC(=O)O)cc1)C2 [Example 23, 4-(4-(8-(5-cyclopropyl-2-ethoxy-4-(methoxycarbonyl)benzyl)-3-oxo-2,8-diazaspiro[4.5]decan-2-yl)benzamido) butanoic acid]
100 to 1000 nM | CCOc1cc(CN2CCC3(CC2)CN(c2ccc(C(=O)NCCCC(=O)NC(CO)(CO)CO)cc2)C(=O)O3)cc(OCC)c1-c1ccc(F)cc1 [Example 5]
> 5000 nM | CCOc1cc(C(=O)OC)c(C2CC2)cc1CN1CCC2(CC1)CC(=O)N(c1ccc(C(=O)NC(CO)(CO)CO)cc1)C2 [Example 21, methyl 2-cyclopropyl-4-((2-(4-((1,3-dihydroxy-2-(hydroxymethyl)propan-2-yl)carbamoyl)phenyl)-3-oxo-2,8-diazaspiro[4.5]decan-8-yl)methyl)-5-ethoxybenzoate]
1000 to 5000 nM | CCOc1cc(C(=O)OC)c(C2CC2)cc1CN1CCC2(CC1)CC(=O)N(c1ccc(C(=O)NCC[N+](C)(C)C)cc1)C2 [Example 22, 2-(4-(8-(5-cyclopropyl-2-ethoxy-4-(methoxycarbonyl)benzyl)-3-oxo-2,8-diazaspiro[4.5]decan-2-yl)benzamido)-N,N,N-trimethylethan-1-aminium]
> 5000 nM | CCOc1cc(CN2CCC3(CC2)CN(c2ccc(C(=O)NCCS(=O)(=O)O)cc2)C(=O)O3)cc(OCC)c1-c1ccc(F)cc1 [Example 12, 2-(4-(8-((2,6-diethoxy-4′-fluoro-[1,1′-biphenyl]-4-yl)methyl)-2-oxo-1-oxa-3,8-diazaspiro[4.5]decan-3-yl)benzamido)ethane-1-sulfonic acid]
100 to 1000 nM | CCOc1cc(C(=O)OC)c(C2CC2)cc1CN1CCC2(CC1)CC(=O)N(c1ccc(C(=O)NCCC(=O)O)cc1)C2 [Example 25, 3-(4-(8-(5-cyclopropyl-2-ethoxy-4-(methoxycarbonyl)benzyl)-3-oxo-2,8-diazaspiro[4.5]decan-2-yl)benzamido)propanoic acid]
100 to 1000 nM | CCOc1cc(-c2ccc(F)cn2)c(C2CC2)cc1CN1CCC2(CC1)CN([C@H]1CC[C@@](C)(C(=O)NCCOCCO)CC1)C(=O)O2 [compound 89]
100 to 1000 nM | CCOc1cc(CN2CCC3(CC2)CN(c2ccc(C(=O)NC[C@H](O)[C@@H](O)[C@H](O)[C@H](O)CO)cc2)C(=O)O3)cc(OCC)c1-c1ccc(F)cc1 [Example 4, 4-(8-((2,6-diethoxy-4′-fluoro-[1,1′-biphenyl]-4-yl)methyl)-2-oxo-1-oxa-3,8-diazaspiro[4.5]decan-3-yl)-N-((2S,3R,4R,5R)-2,3,4,5,6-pentahydroxyhexyl)benzamide]

Structure (SMILES) | IC50
CCOc1cc(C(=O)OC)c(C2CC2)cc1CN1CCN(C(=O)Oc2ccc(C(=O)N3CC(CNC[C@H](O)[C@@H](O)[C@H](O)[C@H](O)CO)C3)cc2)CC1 [Example 99, 4-(3-((((2S,3R,4R,5R)-2,3,4,5,6-pentahydroxyhexyl)amino)methyl)azetidine-1-carbonyl)phenyl 4-(5-cyclopropyl-2-ethoxy-4-(methoxycarbonyl)benzyl)piperazine-1-carboxylate] | 100 to 1000 nM
CCOc1cc(-c2ccc(F)cc2)c(C2CC2)cc1CN1CCN(C(=O)Oc2ccc(C(=O)NC[C@H](O)[C@@H](O)[C@H](O)[C@H](O)CO)cc2)CC1 [compound 94] | ≤ 100 nM
